Source: PMC10384408, “Anticancer Tungstenocenes with a Diverse Set of (O,O–), (O,S–) and (O,N–) Chelates—A Detailed Biological Study Using an Improved Evaluation via 3D Spheroid Models” (Pharmaceutics, 2023)

How the values were obtained:
[1] = test system: IMR-90 human lung fibroblasts; assay: MTT cytotoxicity assay, IMR-90 fibroblasts; type: cell-based; conditions: exposure time 96 h, mean ± SD
Procedure: CH1/PA-1 (ovarian teratocarcinoma), SW480 (colon carcinoma) and A549 (non-small cell lung cancer) cells were maintained as described in the reference. IMR-90 human fetal lung fibroblasts (from the European Collection of Authenticated Cell Cultures, Porton Down, Salisbury, UK) were cultured in Stable Cell^TM DMEM/F12 supplemented with 0.01 mg/mL human recombinant insulin (both purchased from Sigma-Aldrich) and 10% fetal bovine serum (FBS, BioWest, Nuaillé, France). Human colon carcinoma cell lines HCT116 and HT29 (both kindly provided by the Institute of Cancer Research, Department of Medicine I, Medical University of Vienna, Austria) were cultured in McCoy’s 5a medium supplemented with 4 mM L-glutamine (both purchased from Sigma-Aldrich) and 10% FBS. MCF-7 human breast adenocarcinoma cells (kindly provided by M. Ogris, Department of Pharmaceutical Sciences, University of Vienna, Austria) were maintained in DMEM (high glucose) supplemented with 4 mM L-glutamine, 0.1 mg/mL human insulin (all purchased from Sigma-Aldrich) and 10% FBS. All cell lines were grown as monolayers in 75 cm^2 culture flasks (CytoOne, Starlab, Hamburg, Germany) at 37 °C in a humidified atmosphere containing 5% CO2.
Exponentially growing cells were plated into 96-well microculture plates (CytoOne, tissue culture treated, Starlab, Hamburg, Germany) in densities of 1 × 10^3 CH1/PA-1, 2 × 10^3 SW480, 3 × 10^3 A549 and 7 × 10^3 IMR-90 cells per well (each in 100 µL). After a 24 h preincubation, drugs were added in serial dilution to give a final volume of 200 µL/well and exposed for 96 h. At the end of the exposure, the drug solutions were replaced by 100 µL RPMI 1640/MTT mixture (7:1 ratio). MTT (3-(4,5-dimethylthiazol-2-yl)-2,5-diphenyl-2H-tetrazolium bromide), (Acros Organics, Geel, Belgium) solution was prepared in phosphate-buffered saline (5 mg/mL) and mixed with RPMI1640 medium supplemented with 4 mM L-glutamine (both from Sigma-Aldrich) and 10% FBS. After 4 h incubation, the formazan crystals were solubilized in 150 µL of DMSO per well. Absorbance was measured at 550 nm (and at 690 nm as a reference) with a microplate reader (ELx808, BioTek, Winoosky, VT, USA) and Gen5^TM 3.08 software (BioTek). The 50% inhibitory concentrations (IC50) relative to untreated controls were interpolated from concentration-effect curves. At least three biologically and technically independent experiments were performed.

[2] = Aqueous stability by UV/Vis in PBS; type: physicochemical; conditions: 24 h, 293 K, 1 vol% DMSO
Procedure: Stock solutions in DMSO of compounds 1–10 were utilized to determine the solubility in PBS by adding 1 vol% of the stock solution to a suitable amount of PBS. […] UV/Vis data were recorded on a Perkin Elmer Lambda 650 UV/Vis Spectrophotometer with a Peltier element for temperature control.
In order to examine the stability of the compounds in aqueous solution, UV/Vis measurements were performed every hour during 24 h at 293 K. Solutions of compounds 1–10 were prepared in PBS (10%) from a previously prepared DMSO stock solution of each compound. The total concentration of DMSO was 1 vol% for the final complex solutions of 1–10.

[3] = test system: HCT116, HT29 and MCF-7 cell lines; assay: ROS detection (DCFH-DA assay); type: cell-based, human; conditions: 2, 20, 100 and 200 µM, 2 h
Procedure: Reactive oxygen species (ROS) generation was measured by means of the DCFH-DA assay. […] On the following day, cells were washed with 200 µL Hanks’ balanced salt solution (HBSS, Sigma-Aldrich, containing 1% FBS) and stained with 100 µL of 25 µM DCFH-DA (2′,7′-dichlorofluorescein diacetate, Sigma-Aldrich) in HBSS (containing 1% FBS) for 45 min at 37 °C in the dark. After the incubation period, cells were washed with 200 µL HBSS (1% FBS) and loaded with compounds at concentrations of 2 µM, 20 µM, 100 µM and 200 µM in 200 µL phenol-red-free MEM (1% FBS) in triplicates. As positive controls, cells were treated with 200 µM and 400 µM tert-butylhydroperoxide (Sigma-Aldrich). Wells containing only phenol-red-free medium with 1% FBS were used as blanks, and non-drug treated, cell containing wells as reference values. Fluorescence (excitation: 485/20 nm, emission: 516/20 nm) was recorded in 10 min intervals with the Synergy HT reader (BioTek) over 2 h.

[4] = test system: HCT116 spheroids; assay: Spheroid growth, HCT116; type: cell-based, human; conditions: 10 µM, 96 h treatment
Procedure: (§1) For growing multicellular tumor spheroids, 400 HCT116, 400 HT29 or 800 MCF-7 cells per well were plated into round-bottom ultra-low attachment 96-well plates (Corning, Glendale, AZ, USA) in the media described above and incubated at 37 °C for 96 h. Spheroids were treated with 10 µM of the two most cytotoxic compounds 3 and 4 for another 96 h. The diameters of the spheroids were measured with Cell^F software under a CKX41 Olympus microscope before treatment and in constant daily intervals over the 96 h treatment period. For statistical analysis the t-test with Welsh’s correction was implemented in GraphPad Prism software (Version 6.01).

[5] = test system: HT29 spheroids; assay: Spheroid growth, HT29; type: cell-based, human; conditions: 10 µM, 96 h treatment
Procedure: as §1

[6] = test system: MCF-7 spheroids; assay: Spheroid growth, MCF-7; type: cell-based, human; conditions: 10 µM, 96 h treatment
Procedure: as §1

[7] = test system: HCT116 spheroids; assay: KI67 immunofluorescence staining of cryo-sectioned spheroids; type: cell-based, human; conditions: 72 h; for KI67+ cells: untreated control 38.1 ± 7.3 %
Procedure: Spheroids were grown and cryosectioned, as described in the section above. For immunofluorescence staining the samples were fixed with 4% PFA (in PBS) for 15 min. The slides were washed with PBS before permeabilization with 0.1% Triton-X (Sigma-Aldrich, Steinheim, Germany) for 10 min. After three times washing with PBS the samples were stained for 45 min with 10% goat serum (G9023, Sigma-Aldrich) und 5% BSA for avoiding non-specific antibody binding. After one washing step a primary antibody against Ki67 (#9129, Cell Signaling Technology) was applied and samples incubated overnight at 4 °C. On the next day, slides were washed with PBS and incubated with goat anti-rabbit Alexa Fluor 594 (#8889 Cell Signaling Technology) for 1 h at room temperature in the dark, followed by two washing steps with PBS. Slides were mounted with ProlonGold Antifade Reagent with DAPI (Invitrogen, Thermo Fisher) and analyzed with a confocal laser scanning microscope Zeiss LSM800 (Zeiss, Jena, Germany). Images were processed with Zen software (Zeiss). For fluorescence signal intensities data extraction ImageJ/Fiji1.46 was used. For quantification, the maximum signal intensity of the KI67^+ cells was evaluated relative to the untreated control. For statistical analysis the t-test with Welsh’s correction was implemented in GraphPad Prism software (Version 6.01).

SMILES	IC50 [1]	precipitation in PBS [2]	intracellular ROS levels [3]	also measured
CCc1occc(=S)c1[O-].F[P-](F)(F)(F)(F)F.[W+4].c1cc[cH-]c1.c1cc[cH-]c1 [Compound 10, Bis(η^5-cyclopentadienyl)[2-ethyl-3-(oxo-κO)-4-(1H)-pyran-4-thionato-κS] tungsten(IV) hexafluorophosphate]	114 ± 33 µM	slowly precipitate out of the solution over time	relevant ROS generation	
F[P-](F)(F)(F)(F)F.O=c1c([O-])c(-c2ccc(Cl)cc2)oc2ccccc12.[W+4].c1cc[cH-]c1.c1cc[cH-]c1 [Compound 3, Bis(η^5-cyclopentadienyl)[2-(4-chlorophenyl)-3-(oxo-κO)-4(H)-chromen-4-oato-κO]tungsten(IV) hexafluorophosphate]	38.2 ± 0.4 µM	slowly precipitate out of the solution over time	Pronounced elevation of ROS levels	spheroid growth [4]: markedly reduced growth; spheroid growth [5]: completely stop spheroid growth; spheroid growth [6]: completely stop spheroid growth; reduction in number of KI67+ cells relative to untreated control ([7]; 20 µM): 2.4 fold; KI67+ cells ([7]; 20 µM): 15.8 ± 2.8%
Cc1cc(=O)c([O-])co1.F[P-](F)(F)(F)(F)F.[W+4].c1cc[cH-]c1.c1cc[cH-]c1 [Compound 7, Bis(η^5-cyclopentadienyl)[2-methyl-5-(oxo-κO)-4-(1H)-pyran-4-ato-κO] tungsten(IV) hexafluorophosphate]		slowly precipitate out of the solution over time		
F[P-](F)(F)(F)(F)F.[O-]c1c(-c2ccc(Cl)cc2)oc2ccccc2c1=S.[W+4].c1cc[cH-]c1.c1cc[cH-]c1 [Compound 4, Bis(η^5-cyclopentadienyl)[2-(4-chlorophenyl)-3-(oxo-κO)-4(H)-chromen-4-thionato-κS]tungsten(IV) hexafluorophosphate]	11 ± 2 µM	slowly precipitate out of the solution over time	concentration-dependent anti-oxidative properties	spheroid growth [4]: completely stopped spheroid growth; spheroid growth [5]: completely stop spheroid growth; spheroid growth [6]: completely stop spheroid growth; reduction in number of KI67+ cells relative to untreated control ([7]; 15 µM): 2 fold; KI67+ cells ([7]; 15 µM): 19.1 ± 1.3%
Cc1cc(=S)c([O-])co1.F[P-](F)(F)(F)(F)F.[W+4].c1cc[cH-]c1.c1cc[cH-]c1 [Compound 8, Bis(η^5-cyclopentadienyl)[2-methyl-5-(oxo-κO)-pyran-4-(1H)-thionato-κS] tungsten(IV) hexafluorophosphate]		slowly precipitate out of the solution over time		
CCc1occc(=O)c1[O-].F[P-](F)(F)(F)(F)F.[W+4].c1cc[cH-]c1.c1cc[cH-]c1 [Compound 9, Bis(η^5-cyclopentadienyl)[2-ethyl-3-(oxo-κO)-4-(1H)-pyran-4-ato-κO] tungsten(IV) hexafluorophosphate]			Pronounced elevation of ROS levels	
Cc1occc(=S)c1[O-].F[P-](F)(F)(F)(F)F.[W+4].c1cc[cH-]c1.c1cc[cH-]c1 [Compound 2, Bis(η^5-cyclopentadienyl)[2-methyl-3-(oxo-κO)-4-(1H)-pyran-4-thionato-κS]tungsten(IV) hexafluorophosphate]	107 ± 30 µM			
